Several values for one entry are separate records, joined by “and”; a condition that tells them apart may be missing. Equal entries are not always repeated.
Assays:
[1] = system: CL Brener clone of T. cruzi; assay: Acute murine model of Chagas disease; format: in vivo, Balb/c mice
Method: Three-month-old Balb/c mice were infected (day 0) with infected blood from mice at the beginning of the peak of parasitemia (parasitemia greater than 1.0 × 10^6 p /mL with the CL Brener clone of T. cruzi) by intraperitoneal injection (10,000 parasites per mouse). Parasitemia was followed from the fourth-day post-infection until all the mice in the group were positive. Parasitemia measurements were performed by optical microscopy. Once all the mice were positive, the treatment was started. The treatment lasted 15 consecutive days; the compounds were administered orally by intragastric cannula once a day. Parasitemia was monitored weekly. At 30 and 60 days, 200 μL of blood was extracted from the mouse tail for serological tests (ELISA test) to detect antigens of T. cruzi. Day 60 was the end of the experiment, and the animals were sacrificed.
Hemoconcentration and counting micromethod: the mice were bled by pricking the tail and taking the blood with capillaries. One capillary per mouse draws 8-18 mm in height of blood. The millimeters were converted to μL by a table previously described and calibrated in the laboratory. The capillaries were centrifuged at 3000× g for 40 s. The parasitic load in the capillary was observed by optical microscopy (OM) in the capillary: the red blood cells (GR) were distributed at one end and the supernatant serum at the other end, at the interface is the trypomastigotes. Then, the capillary was cut a few mm on the interface towards the GR part and its content was spread on a slide, covered with a coverslip. Then, the total number of parasites in 50 fields (OM at 40× magnification) was counted. This sum was then multiplied by 1/50 to obtain the average number of trypomastigotes per field, corresponding to the number of trypanosomes per 5 mm^3. This was then compared to the samples from control animals. The mean and standard deviation were calculated by using OriginPro9 and GraphPad Prism 5. Comparisons of parasite suppression were completed by the analysis of variance (two-way ANOVA as a […] statistical test).

[2] = system: Salmonella typhimurium strains TA98, T100, T102, TA1535, and TA1537; details: cited from earlier work
zebrafish embryos = system: zebrafish embryos; set-up: method as in earlier work; details: cited from earlier work
CD-1 mice [3] = details: mouse, in vivo; cited from earlier work
cruzipain = details: cited from earlier work
[4] = system: Leishmania spp (cutaneous) promastigotes; set-up: method as in earlier work; details: read-out: In vitro anti-Leishmania spp (cutaneous) activity (IC50); cited from earlier work
T. cruzi amastigotes = system: T. cruzi amastigotes; set-up: method as in earlier work; details: read-out: In vitro anti-T. cruzi activity (multiple strains) (IC50); cited from earlier work
Leishmania infantum = system: Leishmania infantum; set-up: method as in earlier work; details: amastigotes; read-out: In vitro anti-Leishmania infantum (visceral) activity (IC50); cited from earlier work
CD1 and Balb/c mice = system: CD1 and Balb/c mice; set-up: method as in earlier work; details: cited from earlier work
[5] = system: epimastigote form of T. cruzi, Tulahuen 2 strain; assay: Mechanism of death by flow cytometry, AV/IP labeling; format: cell-based; details: 24 h; 20 × IC50
Method: Parasites were immediately analyzed on an Accuri C6 flow cytometer (BD Bioscience, Franklin Lakes, New Jersey, U.S.). […] Ten thousand events were analyzed for each of the two independent experiments. Data were analyzed using BD CSampler software (BD Bioscience). Untreated parasites were used as a control. For the positive control of apoptosis and necrosis, the parasites were treated with hydrogen peroxide (H2O2) 50 µM and 100 µM for 2.5 h, respectively. These single-spot controls were used to calculate color compensation for flow cytometry.

CD-1 mice [6] = assay: Micronucleus test in mice (genotoxicity); details: positive control, 50 mg/kg intraperitoneal, single dose 24 h before sacrifice
Method: The protocol was approved by the Paraguayan ethics committee for animal experimentation (No. IORG0010088). […] The treatment of each group was repeated five times, totaling 5 animals per concentration. The route used in the administration of the negative control and the compound (groups I and II) was oral, using an esophageal cannula and in group III the route was intraperitoneal. The intervention was carried out in two doses: 24 and 48 h before sacrifice, except for cyclophosphamide, which was administered in a single dose, 24 h before sacrifice. At the end of the experiment, the femurs were harvested, and the red bone marrow was removed with fetal bovine serum, kept at 37 °C. […] Samples were stained with 4 % Giemsa stain for 3 min and analyzed under an immersion light microscope. For each treated animal, 1000 polychromatic erythrocytes (EPCs) were counted, including those that presented micronucleus (EPCMNs). The ratio of polychromatic erythrocytes (EPC) vs. normochromatic erythrocytes (ENC), upon counting 100 cells, was also evaluated. The proportion of EPCMNs was calculated for each group, and the treated groups with the compound and cyclophosphamide were compared with the negative control group. The statistical analysis was carried out from the individual values of the evaluated parameters, calculating the mean values and their standard deviations for each of the experimental groups. […]

O=C(Cn1ccnc1[N+](=O)[O-])NCc1ccccc1 [Bnz, Benznidazole]
Days Post-Infection of the First Parasitemia Peak ([1]; 10 µmoles/kg/day): 15 days | Reduction in the Parasitemia Peak (%) ([1]; 10 µmoles/kg/day): 80% | Survival (%) ([1]; 10 µmoles/kg/day): 100% | Days Post-Infection of the First Parasitemia Peak ([1]; 38 µmoles/kg/day): 15 days | Reduction in the Parasitemia Peak (%) ([1]; 38 µmoles/kg/day): 90% | Survival (%) ([1]; 38 µmoles/kg/day): 100% | Days Post-Infection of the First Parasitemia Peak ([1]; 48 µmoles/kg/day): 43 days | Reduction in the Parasitemia Peak (%) ([1]; 48 µmoles/kg/day): 95% | Survival (%) ([1]; 48 µmoles/kg/day): 100%

CC(=NNC(N)=S)[C@H]1CC[C@H]2[C@@H]3CC=C4C[C@@H](O)CC[C@]4(C)[C@H]3CC[C@]12C [Compound 1260, 1-(3β-Hydroxy-pregn-5-ene-20E-ylydene)thiosemicarbazide]
Ames test (mutagenicity) [2]: NO | Teratogenicity in zebrafish (LD50) (zebrafish embryos): > 15 µM | Micronucleus test in mice (Genotoxicity) (CD-1 mice [3]): NO | Cruzipain inhibitor (known) (cruzipain): not an inhibitor of cruzipain | IC50 [4]: < 20 µM | IC50 (T. cruzi amastigotes): 100 nM | IC50 (Leishmania infantum): < 200 nM | Acute oral toxicity in mice (Up and Down test, LD50) (CD1 and Balb/c mice): > 2000 mg/kg of body weight

CC1CS(=O)(=O)CCN1/N=C/c1ccc([N+](=O)[O-])o1 (stereo not shown) [Nfx, Nifurtimox, reference compound]
AV/IP labeling Q1-UR (double AV+/IP+ labeling) [5]: 59%

O=P1(N(CCCl)CCCl)NCCCO1 (stereo not shown) [cyclophosphamide, reference compound]
Micronucleus test in mice (Genotoxicity) (mean of MnPE ±SD) (CD-1 mice [6]): 36 ± 2 MnPE and 36 ± 2 (cyclophosphamide) MnPE
